# Measured values from patent publication US8324179B2, “Nucleoside analogs for antiviral treatment” (Gilead Sciences, Inc., priority 2007, dated 2012).
# pEC50, pIC50: −log10 of the molar value.
# Target: T1, HCV Δ21 NS5b polymerase (Hepatitis C virus genotype 1b, UniProt P26663)
# T1 construct: 75 nM HCV Δ21 NS5b polymerase
# Experiment: NS5b polymerase assay (HCV IC50 determination)
# Format: biochemical
# Conditions: not given
# Method: Assay Protocol: NS5b polymerase assay (40 μL) was assembled by adding 28 μL polymerase mixture (final concentration: 50 mM Tris-HCl at pH 7.5, 10 mM KCL, 5 mM MgCl2, 1 mM DTT, 10 mM EDTA, 4 ng/μL of RNA template, and 75 nM HCV Δ21 NS5b polymerase) to assay plates followed by 4 μL of compound dilution. The polymerase and compound were pre-incubated at 35° C. for 10 minute before the addition of 8 μL of nucleotide substrate mixture (33P-α-labeled competing nucleotide at KM and 0.5 mM of the remaining three nucleotides). The assay plates were covered and incubated at 35° C. for 90 min. Reactions were then filtered through 96-well DEAE-81 filter plates via vacuum. The filter plates were then washed under vacuum with multiple volumes of 0.125 M NaHPO4, water, and ethanol to remove unincorporated label. Plates were then counted on TopCount to assess the level of product synthesis over background controls. The IC50 value was determined using Prism fitting program.
# T1 sequence (P26663 2420-2989, stated change not applied): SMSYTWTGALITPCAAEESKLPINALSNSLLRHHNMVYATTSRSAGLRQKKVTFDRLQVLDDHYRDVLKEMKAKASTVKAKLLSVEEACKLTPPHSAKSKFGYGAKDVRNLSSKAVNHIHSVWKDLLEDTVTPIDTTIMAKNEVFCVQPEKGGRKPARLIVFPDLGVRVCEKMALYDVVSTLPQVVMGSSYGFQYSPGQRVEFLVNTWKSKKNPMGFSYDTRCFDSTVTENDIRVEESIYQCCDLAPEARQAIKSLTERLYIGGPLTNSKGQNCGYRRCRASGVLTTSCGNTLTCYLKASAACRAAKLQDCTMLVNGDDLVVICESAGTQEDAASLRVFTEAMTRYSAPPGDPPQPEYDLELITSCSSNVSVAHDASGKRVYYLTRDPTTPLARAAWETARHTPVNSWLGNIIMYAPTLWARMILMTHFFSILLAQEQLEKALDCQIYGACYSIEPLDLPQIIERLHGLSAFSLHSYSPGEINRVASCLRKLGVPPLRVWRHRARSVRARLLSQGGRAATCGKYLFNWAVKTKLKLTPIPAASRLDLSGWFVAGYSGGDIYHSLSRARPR
row,Molecule,pIC50
1,Nc1ncnc2c1ncn2[C@@H]1O[C@H](/C=C/P(=O)(O)OP(=O)(O)OP(=O)(O)O)[C@@H](O)[C@H]1F [Compound 55.7],> 5.00
2,O=C1C=Cc2nn([C@@H]3O[C@H](/C=C/P(=O)(O)OP(=O)(O)OP(=O)(O)O)C[C@H]3O)c3ncnc(c23)N1 [Compound 52.6],> 5.00
3,Nc1ncnc2c1ncn2[C@@H]1O[C@H](/C=C/P(=O)(O)OP(=O)(O)OP(=O)(O)O)[C@@H](O)[C@@H]1F [Compound 56.5],< 4.00
4,CN(NS(C)(=O)=O)c1ncnc2c1ncn2[C@@H]1O[C@H](/C=C/P(=O)(O)OP(=O)(O)OP(=O)(O)O)C[C@H]1O [Compound 60.5],< 4.00
5,Nc1ncnc2c1nnn2C1OC(C=CP(=O)(O)OP(=O)(O)OP(=O)(O)O)CC1O (stereo not shown) [Compound 38.4],4.00 to 5.00
6,NC(=O)c1ncn([C@@H]2O[C@H](/C=C/P(=O)(O)OP(=O)(O)OP(=O)(O)O)C[C@H]2O)n1 [Compound 54.4],< 4.00
7,Nc1nc(N)c2nnn(C3OC(C=CP(=O)(O)OP(=O)(O)OP(=O)(O)O)CC3O)c2n1 (stereo not shown) [Compound 53.4],< 4.00
8,Nc1ncnc2c1nnn2[C@@H]1O[C@H](/C=C/P(=O)(O)OP(=O)(O)OP(=O)(O)O)[C@@H](O)[C@H]1O [Compound 6.8],< 4.00
9,COC1C(O)C(C=CP(=O)(O)OP(=O)(O)OP(=O)(O)O)OC1n1cnc2c(=O)[nH]c(N)nc21 (stereo not shown) [Compound 16.95],4.00 to 5.00
10,Nc1nc2c(ncn2[C@@H]2O[C@H](/C=C/P(=O)(O)OP(=O)(O)OP(=O)(O)O)C[C@H]2O)c(=O)[nH]1 [Compound 9.12],< 4.00
11,O=c1ccn([C@@H]2O[C@H](/C=C/P(=O)(O)OP(=O)(O)OP(=O)(O)O)[C@@H](O)[C@H]2F)c(=O)[nH]1 [Compound 58.7],4.00 to 5.00
12,Nc1nc2c(nnn2[C@@H]2O[C@H](/C=C/P(=O)(O)OP(=O)(O)OP(=O)(O)O)C[C@H]2O)c(=O)[nH]1 [Compound 10.4],< 4.00

# System: Replicon cells
# Experiment: HCV EC50 determination, replicon luciferase assay
# Format: cell-based
# Conditions: 3 days, luciferase activity, read-out: Replicon inhibiting potency EC50
# Method: Replicon cells were seeded in 96-well plates at a density of 8×10^3 cells per well in 100 μL of culture medium, excluding Geneticin. Compound was serially diluted in 100% DMSO and then added to the cells at a 1:200 dilution, achieving a final concentration of 0.5% DMSO and a total volume of 200 μL. Plates were incubated at 37° C. for 3 days, after which culture medium was removed and cells were lysed in lysis buffer provided by Promega's luciferase assay system. Following the manufacturer's instruction, 100 μL of luciferase substrate was added to the lysed cells and luciferase activity was measured in a TopCount luminometer.
row,Molecule,pEC50
1,CCCCOC(=O)[C@H](C)NP(=O)(/C=C/[C@@H]1C[C@@H](O)[C@H](n2cnc3c(=O)[nH]c(N)nc32)O1)N[C@@H](C)C(=O)OCCCC [Compound 9.11],> 5.00
2,{2-[5-(4-Amino-2-oxo-2H-pyridin-1-yl)-4-hydroxy-tetrahydro-furan-2-yl]-vinyl}-phosphonic acid [Compound 11.2],< 4.00
3,CCCCOC(=O)[C@H](C)NP(=O)(/C=C/[C@H]1O[C@@H](n2cnc3c(N)ncnc32)[C@@H](F)[C@@H]1O)N[C@@H](C)C(=O)OCCCC [Compound 56.6],> 5.00
4,"Nc1ncnc2c1cnn2[C@@H]1O[C@H](/C=C/P(=O)(O)O)[C@@H](O)[C@H]1O [Compound 25.3, (E)-2-((2R,3S,4R,5R)-5-(4-amino-1H-pyrazolo[3,4-d]pyrimidin-1-yl)-3.4-dihydroxy-tetrahydrofuran-2-yl)vinylphosphonic acid]",< 4.00

# Same assay, conditions: Hepatitis C virus, 72 h, 3 days, luciferase activity, read-out: Replicon inhibiting potency EC50
row,Molecule,pEC50
1,"Nc1nc2c(ncn2C2OC(C=CP(=O)(O)O)C(O)C2O)c(=O)[nH]1 (stereo not shown) [Compound 18.8, {2-[5-(2-Amino-6-oxo-1,6-dihydro-purin-9-yl)-3,4-dihydroxy-tetrahydro-furan-2-yl]-vinyl}-phosphonic acid]",4.00 to 5.00
2,CCCCOC(=O)[C@H](C)NP(=O)(/C=C/[C@@H]1C[C@@H](O)[C@H](n2nnc3c(=O)[nH]c(N)nc32)O1)N[C@@H](C)C(=O)OCCCC [Compound 10.3],< 4.00
3,CCCCOC(=O)[C@H](C)NP(=O)(/C=C/[C@@]1(N=[N+]=[N-])O[C@@H](n2ccc(=O)[nH]c2=O)[C@H](O)[C@@H]1O)N[C@@H](C)C(=O)OCCCC [Compound 48.7],4.00 to 5.00
4,"Nc1nc(N)c2ncn(C3OC(C=CP(=O)(O)O)CC3O)c2n1 (stereo not shown) [Compound 13.2, {2-[5-(2,6-Diamino-purin-9-yl)-4-hydroxy-tetrahydro-furan-2-yl]-vinyl}-phosphonic acid]",< 4.00
5,"Nc1ncnc2c1ncn2C1OC(C=CP(=O)(O)O)CC1O (stereo not shown) [Compound 12.2, {2-[5-(6-Amino-purin-9-yl)-4-hydroxy-tetrahydro-furan-2-yl]-vinyl}-phosphonic acid]",> 5.00
6,"CNc1nc(N)nc2c1ncn2C1OC(C=CP(=O)(O)O)CC1O (stereo not shown) [Compound 46.3, {2-[5-(2-Amino-6-methylamino-purin-9-yl)-4-hydroxy-tetrahydro-furan-2-yl]-vinyl}-phosphonic acid]",< 4.00
7,"CNc1ncnc2c1ncn2C1OC(C=CP(=O)(O)O)CC1O (stereo not shown) [Compound 47.2, {2-[4-Hydroxy-5-(6-methylamino-purin-9-yl)-tetrahydro-furan-2-yl]-vinyl}-phosphonic acid]",< 4.00
8,CCCCOC(=O)[C@H](C)NP(=O)(/C=C/[C@H]1O[C@@H](n2cnc3c(N)ncnc32)[C@H](F)[C@@H]1O)N[C@@H](C)C(=O)OCCCC [Compound 55.8],4.00 to 5.00
9,"Nc1ncnc2c1nnn2[C@@H]1O[C@H](/C=C/P(=O)(O)O)C[C@H]1O [Compound 38.2, (E)-2-((2S,4R,5R)-5-(7-amino-3H-[1,2,3]triazolo[4,5-d]pyrimidin-3-yl)-4-hydroxy-tetrahydrofuran-2-yl)vinylphosphonic acid]",< 4.00
10,O=c1ccn([C@@H]2O[C@H](/C=C/P(=O)(O)O)C[C@H]2O)c(=O)[nH]1 [Compound 50.6],< 4.00
11,CCCCOC(=O)[C@H](C)NP(=O)(/C=C/[C@@H]1C[C@@H](O)[C@H](n2cnc(C(N)=O)n2)O1)N[C@@H](C)C(=O)OCCCC [Compound 54.3],< 4.00
12,"Nc1nc2c(nnn2C2OC(C=CP(=O)(O)O)CC2O)c(=O)[nH]1 (stereo not shown) [Compound 10.2, {2-[5-(5-Amino-7-oxo-6,7-dihydro-[1,2,3]triazolo[4,5-d]pyrimidin-3-yl)-4-hydroxy-tetrahydro-furan-2-yl]-vinyl}-phosphonic acid]",4.00 to 5.00
13,"C[C@@]1(O)[C@H](O)[C@@H](/C=C/P(=O)(O)O)O[C@H]1n1nnc2c(N)ncnc21 [Compound 27.8, (E)-2-((2R,3R,4R,5R)-5-(7-amino-3H-[1,2,3]triazolo[4,5-d]pyrimidin-3-yl)-3,4-dihydroxy-4-methyl-tetrahydrofuran-2-yl)vinylphosphonic acid]",< 4.00
14,"Nc1ncnc2c1nnn2C1OC(CCP(=O)(O)O)C(O)C1O (stereo not shown) [Compound 6.7, {2-[5-(7-Amino-[1,2,3]triazolo[4,5-d]pyrimidin-3-yl)-3,4-dihydroxy-tetrahydro-furan-2-yl]-ethyl}-phosphonic acid]",< 4.00
15,"CC(=O)Nc1nc2c(ncn2C2OC(C=CP(=O)(O)O)CC2OC(=O)c2ccccc2)c(=O)[nH]1 (stereo not shown) [Compound 9.10, Benzoic acid 2-(2-acetylamino-6-oxo-1,6-dihydro-purin-9-yl)-5-(2-phosphono-vinyl)-tetrahydro-furan-3-yl ester]",4.00 to 5.00
16,"Nc1ncnc2c1ncn2[C@@H]1O[C@H](/C=C/P(=O)(O)O)[C@@H](O)[C@H]1O [Compound 24.4, (E)-2-((2R,3S,4R,5R)-5-(6-amino-9H-purin-9-yl)-3,4-dihydroxy-tetrahydrofuran-2-yl)vinylphosphonic acid]",< 4.00
17,"COC1C(O)C(C=CP(=O)(O)O)OC1n1cnc2c(=O)[nH]c(N)nc21 (stereo not shown) [Compound 16.9, {2-[5-(2-Amino-6-oxo-1,6-dihydro-purin-9-yl)-3-hydroxy-4-methoxy-tetrahydro-furan-2-yl]-vinyl}-phosphonic acid]",< 4.00
18,"COC1C(O)C(C=CP(=O)(O)O)OC1n1ccc(N)nc1=O (stereo not shown) [Compound 17.5, {2-[5-(4-Amino-2-oxo-2H-pyrimidin-1-yl)-3-hydroxy-4-methoxy-tetrahydro-furan-2-yl]-vinyl}-phosphonic acid]",< 4.00
